According to US10889543B2, “Fine-tune modulators of neuronal excitability for neuropsychiatric disorders” (THE BOARD OF REGENTS OF THE UNIVERSITY OF TEXAS SYSTEM, priority 2016, dated 2021):
Residues, ends and D or L forms follow the SMILES beside them. *: point of attachment. Fmoc = O=C(OCC1c2ccccc2-c2ccccc21)*; Cbz = O=C(OCc1ccccc1)*; Boc = CC(C)(C)OC(=O)*

biological target: T1, FGF14:Nav1.6 complex (Homo sapiens, UniProt Q92915); assay: Split-luciferase complementation assay (LCA) in HEK293 cells expressing CLuc-FGF14 and CD4-Nav1.6-NLuc; format: cell-based; settings: 50 μM, normalized to DMSO control
T1 construct: FGF14 and the C-tail of Nav1.6 channels are fused to vectors expressing CLuc and NLuc luciferase reporter; expressed in transfected cells; host or cells: HEK293, transient transfection
T1 sequence (Q92915 1-252 isoform Q92915-2): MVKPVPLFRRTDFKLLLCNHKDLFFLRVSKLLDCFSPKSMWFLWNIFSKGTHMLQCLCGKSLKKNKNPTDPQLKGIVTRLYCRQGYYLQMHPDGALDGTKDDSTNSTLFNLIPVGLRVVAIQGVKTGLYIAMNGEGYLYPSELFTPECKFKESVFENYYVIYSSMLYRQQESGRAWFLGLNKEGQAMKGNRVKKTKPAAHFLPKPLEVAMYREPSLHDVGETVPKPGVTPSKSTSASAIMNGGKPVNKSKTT
Experimental: Detailed methods for LCA can be found is known in the art. See e.g., Shavkunov A. S., et al., Methods in Molecular Biology 1278:497-514 (2015). Statistical values were calculated as mean and standard error of the mean (mean±SEM), unless otherwise specified. The statistical significance (*p<0.05) of different groups was determined by Student's t-test, one-way ANOVA with post-hoc Bonferroni's method or Kruskal-Wallis one-way ANOVA on ranks with post-hoc Dunn's method using Sigma Stat (San Jose, Calif.) and Graph PrismR (La Jolla, Calif.) software. Dose-response modulation was determined by: y=START+(END−START)*x^n/(k^n+x^n) where k, Michaelis constant; n, cooperative sites; x, independent variable; y, dependable variable.
To monitor the role of compounds of the invention in the FGF14:Nav1.6 complex, certain embodiments of the invention were screened by split-luciferase complementation assay (LCA) where FGF14 and the C-tail of Nav1.6 channels are fused to vectors expressing CLuc and NLuc luciferase reporter. Compounds of the invention, as exemplified by, compounds ZL0141, ZL0148, ZL0181, and ZL0182 (see FIG. 1) were tested at 50 μM in HEK293 cells expressing CLuc-FGF14 and CD4:Nav1.6-NLuc. […] None of the tested compounds interfered with the full-length luciferase enzyme (FIG. 2B, Chart C). Dose-response studies were then performed with compounds ZL0148, ZL0181, and ZL0182 against the FGF14:Nav1.6 complex.

Row | luminescence response compared to control (DMSO) [%] | Structure (SMILES)
1 | 103±14 | CC(C)C[C@H](NC(=O)[C@H](Cc1ccccc1)NC(=O)OCc1ccccc1)C(=O)N1CCC[C@H]1C(N)=O [ZL0141, Z-Phe-Leu-Pro-NH2] (Cbz-Phe-Leu-Pro-NH2)
2 | 132±9 | CC(=O)N[C@@H](Cc1ccccc1)C(=O)N[C@@H](CC(C)C)C(=O)N[C@@H](CCCCNC(=O)OC(C)(C)C)C(N)=O [ZL0148, Ac-Phe-Leu-Lys(Boc)-NH2] (Ac-Phe-Leu-Lys(Boc)-NH2)

Row | Structure (SMILES) | luminescence response compared to control (DMSO) [%]
3 | CC(=O)N[C@@H](Cc1ccccc1)C(=O)N[C@@H](CC(C)C)C(=O)N1CCC[C@H]1C(=O)N[C@@H](CCCCNC(=O)OCC1c2ccccc2-c2ccccc21)C(=O)O [ZL0182, Ac-Phe-Leu-Pro-Lys(Fmoc)-OH] (Ac-FLPK(Fmoc)-OH) | 129±13
